Assay results taken from ChEMBL document CHEMBL5380834, “Design, Synthesis, and Biological Evaluation of Androgen Receptor (AR) Antagonist-Heat Shock Protein 90 (Hsp90) Inhibitor Conjugates for Targeted Therapy of Castration-Resistant Prostate Cancer” (J Med Chem, 2023).
Calls of active or inactive are those of the source. The calls are words filed in the database; no cut-off is given here.

Legend:
[1] = tested on: LNCaP; test: Cytotoxicity against AR-positive human LNCaP cells assessed as inhibition of cell growth incubated for 5 days in presence of AR agonist, R1881 in charcoal stripped serum by WST-1 assay; assay type: functional, cell-based; conditions: 120 h
[2] = tested on: CWR22R; test: Cytotoxicity against human 22Rv1 cells assessed as inhibition of cell growth incubated for 5 days in presence of AR agonist, R1881 by WST-1 assay; assay type: functional, cell-based; conditions: 22Rv1, 120 h
[3] = target: T1, Androgen receptor (Homo sapiens) (UniProt P10275); test: Induction of full length AR degradation in human LNCaP cells assessed as maximum degradation at 100 nM measured after 12 hrs relative to control; assay type: cell-based
T1 sequence (whole entry): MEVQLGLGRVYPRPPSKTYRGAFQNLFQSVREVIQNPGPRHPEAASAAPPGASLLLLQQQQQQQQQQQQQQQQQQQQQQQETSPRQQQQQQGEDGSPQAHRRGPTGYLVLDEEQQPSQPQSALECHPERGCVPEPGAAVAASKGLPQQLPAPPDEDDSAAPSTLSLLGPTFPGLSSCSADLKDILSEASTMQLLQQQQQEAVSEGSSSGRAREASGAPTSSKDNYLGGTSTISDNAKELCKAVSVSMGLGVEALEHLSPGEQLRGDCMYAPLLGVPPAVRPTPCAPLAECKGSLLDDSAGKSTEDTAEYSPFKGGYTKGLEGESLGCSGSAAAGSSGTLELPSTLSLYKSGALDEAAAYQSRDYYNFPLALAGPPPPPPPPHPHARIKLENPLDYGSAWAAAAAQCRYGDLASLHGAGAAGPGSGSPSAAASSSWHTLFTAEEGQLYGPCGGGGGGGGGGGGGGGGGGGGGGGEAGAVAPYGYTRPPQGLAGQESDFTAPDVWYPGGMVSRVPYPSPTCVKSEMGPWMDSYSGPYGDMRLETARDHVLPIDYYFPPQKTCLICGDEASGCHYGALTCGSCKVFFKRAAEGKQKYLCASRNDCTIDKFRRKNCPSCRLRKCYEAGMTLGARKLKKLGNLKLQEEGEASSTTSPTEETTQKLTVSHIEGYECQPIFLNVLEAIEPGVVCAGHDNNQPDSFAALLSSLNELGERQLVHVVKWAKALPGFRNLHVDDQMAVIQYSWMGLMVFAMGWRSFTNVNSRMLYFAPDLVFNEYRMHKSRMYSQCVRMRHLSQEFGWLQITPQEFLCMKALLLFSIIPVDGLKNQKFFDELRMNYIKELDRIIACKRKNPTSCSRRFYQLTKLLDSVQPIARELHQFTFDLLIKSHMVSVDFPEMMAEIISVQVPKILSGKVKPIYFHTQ

[4] = tested on: Androgen receptor (Homo sapiens), P10275 [UNDEFINED MUTATION]; test: Induction of AR-V7 degradation in human 22Rv1 cells measured upto 24 hrs by Western blot analysis; assay type: cell-based; conditions: dose 1000.0 nM
[5] = tested on: LNCaP; test: Downregulation of AR-regulated TMPRSS2 protein level in human LNCaP cells measured for 48 hrs in presence of AR agonist, R1881 in charcoal stripped serum by Western blot analysis; assay type: functional, cell-based; conditions: dose 300-1000 nM
[6] = tested on: LNCaP; test: Downregulation of AR-regulated PSA protein level in human LNCaP cells measured for 48 hrs in presence of AR agonist, R1881 in charcoal stripped serum by Western blot analysis; assay type: functional, cell-based; conditions: dose 300-1000 nM
[7] = tested on: LNCaP; test: Downregulation of AR-regulated FKBP5 protein level in human LNCaP cells measured for 48 hrs in presence of AR agonist, R1881 in charcoal stripped serum by Western blot analysis; assay type: functional, cell-based; conditions: dose 300-1000 nM
[8] = Drug uptake in human 22Rv1 cells measured after 12 hrs by LC-MS/MS analysis; assay type: ADME, cell-based; conditions: cwr22r, 1 µM
[9] = Drug uptake in human 22Rv1 cells at 1 uM measured at 1 to 24 hrs by LC-MS/MS analysis; assay type: ADME, cell-based; conditions: cwr22r, time 1-24 hrs
[10] = target: T1, Androgen receptor (Homo sapiens); test: Induction of full length AR degradation in human RWPE-1 cells at 10 uM measured for 24 hrs by Western blot analysis; assay type: cell-based
[11] = Cytotoxicity against human RWPE-1 cells assessed as inhibition of cell growth incubated for 5 days by CCK-8 assay; assay type: toxicity, cell-based
[12] = tested on: LNCaP; test: Induction of cell cycle arrest in human LNCaP cells assessed as accumulation of cells at G2/M phase at 100 to 1000 nM measured for 24 hrs by flow cytometry analysis; assay type: functional, cell-based; conditions: dose 100-1000 nM
[13] = tested on: CWR22R; test: Induction of cell cycle arrest in human 22Rv1 cells assessed as accumulation of cells at G2/M phase at 100 to 1000 nM measured for 24 hrs by flow cytometry analysis; assay type: functional, cell-based; conditions: dose 100-1000 nM
[14] = tested on: LNCaP; test: Induction of apoptosis in human LNCaP cells assessed as viable cells at 100 nM measured for 48 hrs by flow cytometry assay (reference value: 96.9%); assay type: functional; conditions: read-out: Activity
[15] = tested on: LNCaP; test: Induction of apoptosis in human LNCaP cells assessed as early apoptotic cells at 100 nM measured for 48 hrs by flow cytometry assay (reference value: 1.48%); assay type: functional
[16] = tested on: LNCaP; test: Induction of apoptosis in human LNCaP cells assessed as late apoptotic cells at 100 nM measured for 48 hrs by flow cytometry assay (reference value: 1.29%); assay type: functional
[17] = tested on: LNCaP; test: Induction of apoptosis in human LNCaP cells assessed as necrotic cells at 100 nM measured for 48 hrs by flow cytometry assay (reference value: 0.35%); assay type: functional
[18] = tested on: LNCaP; test: Induction of apoptosis in human LNCaP cells assessed as viable cells at 1000 nM measured for 48 hrs by flow cytometry assay (reference value: 96.9%); assay type: functional; conditions: read-out: Activity
[19] = tested on: LNCaP; test: Induction of apoptosis in human LNCaP cells assessed as early apoptotic cells at 1000 nM measured for 48 hrs by flow cytometry assay (reference value: 1.48%); assay type: functional
[20] = tested on: LNCaP; test: Induction of apoptosis in human LNCaP cells assessed as late apoptotic cells at 1000 nM measured for 48 hrs by flow cytometry assay (reference value: 1.29%); assay type: functional
[21] = tested on: LNCaP; test: Induction of apoptosis in human LNCaP cells assessed as necrotic cells at 1000 nM measured for 48 hrs by flow cytometry assay (reference value: 0.35%); assay type: functional
[22] = tested on: CWR22R; test: Induction of apoptosis in human 22Rv1 cells assessed as viable cells at 100 nM measured for 48 hrs by flow cytometry assay (reference value: 91.3%); assay type: functional; conditions: read-out: Activity
[23] = tested on: CWR22R; test: Induction of apoptosis in human 22Rv1 cells assessed as early apoptotic cells at 100 nM measured for 48 hrs by flow cytometry assay (reference value: 4.59%); assay type: functional
[24] = tested on: CWR22R; test: Induction of apoptosis in human 22Rv1 cells assessed as late apoptotic cells at 100 nM measured for 48 hrs by flow cytometry assay (reference value: 3.96%); assay type: functional
[25] = tested on: CWR22R; test: Induction of apoptosis in human 22Rv1 cells assessed as necrotic cells at 100 nM measured for 48 hrs by flow cytometry assay (reference value: 0.19%); assay type: functional
[26] = tested on: CWR22R; test: Induction of apoptosis in human 22Rv1 cells assessed as viable cells at 1000 nM measured for 48 hrs by flow cytometry assay (reference value: 91.3%); assay type: functional; conditions: read-out: Activity
[27] = tested on: CWR22R; test: Induction of apoptosis in human 22Rv1 cells assessed as early apoptotic cells at 1000 nM measured for 48 hrs by flow cytometry assay (reference value: 4.59%); assay type: functional
[28] = tested on: CWR22R; test: Induction of apoptosis in human 22Rv1 cells assessed as late apoptotic cells at 1000 nM measured for 48 hrs by flow cytometry assay (reference value: 3.96%); assay type: functional
[29] = tested on: CWR22R; test: Induction of apoptosis in human 22Rv1 cells assessed as necrotic cells at 1000 nM measured for 48 hrs by flow cytometry assay (reference value: 0.19%); assay type: functional
[30] = tested on: LNCaP; test: Induction of apoptosis in human LNCaP cells assessed as increase in caspase-3 level at 1 uM measured after 48 hrs by Western blot analysis; assay type: functional, cell-based
[31] = tested on: LNCaP; test: Induction of apoptosis in human LNCaP cells assessed as increase in PARP level at 1 uM measured after 48 hrs by Western blot analysis; assay type: functional, cell-based
[32] = tested on: CWR22R; test: Induction of apoptosis in human 22Rv1 cells assessed as increase in caspase-3 level at 1 uM measured after 48 hrs by Western blot analysis; assay type: functional, cell-based
[33] = tested on: CWR22R; test: Induction of apoptosis in human 22Rv1 cells assessed as increase in PARP level at 1 uM measured after 48 hrs by Western blot analysis; assay type: functional, cell-based
[34] = Toxicity in BALB/c nude mouse xenografted with human 22Rv1 cells assessed as animal weight loss at 5 mg/kg, ip administered once every 4th day for 3 weeks; assay type: organism-based, CWR22R; conditions: in vivo, 504 h
[35] = Toxicity in BALB/c nude mouse xenografted with human LNCaP cells assessed as animal weight loss at 5 mg/kg, ip administered once every 4th day for 3 weeks; assay type: organism-based; conditions: in vivo, 504 h
[36] = tested on: CWR22R; test: Antitumor activity against human 22Rv1 cells xenografted in BALB/c nude mouse assessed as downregulation of AR-FL level at 2.5 mg/kg, ip administered once every 4th day for 3 weeks; assay type: functional, organism-based
[37] = tested on: CWR22R; test: Antitumor activity against human 22Rv1 cells xenografted in BALB/c nude mouse assessed as downregulation of AR-V7 level at 2.5 mg/kg, ip administered once every 4th day for 3 weeks; assay type: functional, organism-based
[38] = tested on: LNCaP; test: animal or person; conditions: Mus musculus, po, 504 h, read-out: TGI
Description: Antitumor activity against human LNCaP cells xenografted in BALB/c nude mouse assessed as inhibition of tumor growth at 5 mg/kg, po administered once every 4th day for 3 weeks

## CC(C)c1cc(-c2n[nH]c(=O)n2-c2ccc(CN3CCN(CC4CCN(CC5CCN(c6ncc(C(=O)N[C@H]7CC[C@H](Oc8ccc(C#N)c(Cl)c8)CC7)cn6)CC5)CC4)CC3)cc2)c(O)cc1O
[1]
  IC50: 33.4 nM
[2]
  IC50: 27 nM
[3]
  Activity: > 90%
[4]
  Activity: Dose-Dependent Effect
[5]
  Activity: Dose-Dependent Effect
[6]
  Activity: Dose-Dependent Effect
[7]
  Activity: Dose-Dependent Effect
[8]
  Drug uptake: Dose-Dependent Effect
[9]
  Drug uptake: Active
[10]
  Activity: inactive
[11]
  IC50 at 5 days: 241 nM
[12]
  Activity: Active
[13]
  Activity: Active
[14]
  viability at 0.1 µM: 91.9%
[15]
  Activity: 4.05%
[16]
  Activity: 3.71%
[17]
  Activity: 0.32%
[18]
  viability at 1 µM: 87.1%
[19]
  Activity: 4.87%
[20]
  Activity: 6.91%
[21]
  Activity: 1.13%
[22]
  viability at 0.1 µM: 80.1%
[23]
  Activity: 6.96%
[24]
  Activity: 12.8%
[25]
  Activity: 0.066%
[26]
  viability at 1 µM: 70.3%
[27]
  Activity: 13.5%
[28]
  Activity: 16.1%
[29]
  Activity: 0.085%
[30]
  Activity: Active
[31]
  Activity: Active
[32]
  Activity: Active
[33]
  Activity: Active
[34]
  Activity: ~ 10%
[35]
  Activity: 10%

## CNC(=O)c1ccc(N2C(=S)N(c3ccc(C#N)c(C(F)(F)F)c3)C(=O)C2(C)C)cc1F [ENZALUTAMIDE]
[1]
  IC50: 52 nM
[2]
  IC50: > 1000 nM
[36]
  Activity: inactive
[37]
  Activity: inactive
[35]
  Activity: 10%
[38]
  inhibition in vivo at 5 mg/kg: 50%
